Test results from ChEMBL document CHEMBL1201862, “PubChem BioAssay data set” (2004).
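The compound was tested at five concentrations on cells cultured in 96-well plates, with a 48-hour exposure period. Here, GI50 denotes the concentration required for 50% inhibition of growth.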 Calls of active or inactive are those of the source. Cut-off read from the data, not from the text of the source: active = GI50 up to about 1.1 µM and inactive = higher.

Assays:
Test in all cases: inhibition of tumour cell growth, NCI panel, 48 h
A498 = system: A498
A549 = system: A549
ACHN = system: ACHN
CAKI-1 = system: CAKI-1
DU-145 = system: DU-145
K562 = system: K562
MDA-MB-231 = system: MDA-MB-231
MDA-N = system: MDA-N
MOLT-4 = system: MOLT-4
OVCAR-3 = system: OVCAR-3
OVCAR-4 = system: OVCAR-4
OVCAR-8 = system: OVCAR-8
PC-3 = system: PC-3
SF-295 = system: SF-295
SN12C = system: SN12C
SNB-19 = system: SNB-19
SW-620 = system: SW-620
NCI-H522 = system: NCI-H522
U-251 = system: U-251

Measured: GI50

C/C(CC1SCCCS1)=C(/C)CC1SCCCS1
inactive: A498 > 100 µM | A549 > 100 µM | ACHN > 100 µM | CAKI-1 > 100 µM | DU-145 > 100 µM | K562 > 100 µM | MDA-MB-231 > 100 µM | MDA-N > 100 µM | MOLT-4 > 100 µM | OVCAR-3 > 100 µM | OVCAR-4 > 100 µM | OVCAR-8 > 100 µM | PC-3 > 100 µM | SF-295 > 100 µM | SN12C > 100 µM | SNB-19 > 100 µM | SW-620 > 100 µM

COc1ccccc1NCc1nnc(CCCCCCCCc2nnc(CNc3ccccc3OC)o2)o1
inactive: A498 > 100 µM | A549 > 100 µM | ACHN > 100 µM | CAKI-1 > 100 µM | DU-145 > 100 µM | K562 > 100 µM | MDA-MB-231 > 100 µM | MDA-N > 100 µM | MOLT-4 > 100 µM | NCI-H522 > 100 µM | OVCAR-3 > 100 µM | OVCAR-4 > 100 µM | OVCAR-8 > 100 µM | PC-3 > 100 µM | SF-295 > 100 µM | SN12C > 100 µM | SNB-19 > 100 µM | U-251 > 100 µM

CCN(CC)c1ccc2cc(C(N)=O)c(=N)oc2c1
inactive: A498 38.2 µM | A549 37.4 µM | ACHN 32.7 µM | CAKI-1 35.4 µM | DU-145 40.9 µM | K562 > 100 µM | MDA-MB-231 32.1 µM | MDA-N 38.2 µM | MOLT-4 69.2 µM | OVCAR-3 31.6 µM | OVCAR-4 23.6 µM | OVCAR-8 50 µM | PC-3 26.3 µM | SN12C 31.3 µM | SNB-19 42.1 µM | SW-620 47.4 µM | U-251 98.6 µM

O=C1CC2(CCN(Cc3ccccc3)CC2)C(=O)N1N1CCCCC1
inactive: A498 > 100 µM | A549 > 100 µM | ACHN > 100 µM | CAKI-1 > 100 µM | DU-145 > 100 µM | K562 > 100 µM | MDA-MB-231 > 100 µM | MDA-N > 100 µM | MOLT-4 > 100 µM | NCI-H522 > 100 µM | OVCAR-3 > 100 µM | OVCAR-8 > 100 µM | PC-3 > 100 µM | SF-295 > 100 µM | SN12C > 100 µM | SNB-19 > 100 µM | SW-620 > 100 µM | U-251 > 100 µM

CCOC(=O)C1(C(C)=O)OC(=O)c2cnccc21 (stereo not given)
inactive: A498 > 100 µM | A549 > 100 µM | ACHN > 100 µM | CAKI-1 > 100 µM | DU-145 > 100 µM | K562 > 100 µM | MDA-MB-231 > 100 µM | MDA-N > 100 µM | MOLT-4 > 100 µM | NCI-H522 > 100 µM | OVCAR-3 > 100 µM | OVCAR-8 > 100 µM | PC-3 > 100 µM | SF-295 > 100 µM | SN12C > 100 µM | SNB-19 > 100 µM | SW-620 > 100 µM | U-251 > 100 µM

COc1ccc2c(c1)CC1COc3cc(OC)ccc3C1O2 (stereo not given)
inactive: A498 > 100 µM | A549 > 100 µM | CAKI-1 > 100 µM | DU-145 > 100 µM | MDA-MB-231 > 100 µM | MDA-N > 100 µM | MOLT-4 > 100 µM | NCI-H522 55 µM | OVCAR-3 > 100 µM | OVCAR-8 71.8 µM | PC-3 79.8 µM | SF-295 77.3 µM | SN12C > 100 µM | SW-620 > 100 µM | U-251 36.6 µM

CCOC(=O)C1=CN=C2C(=O)N(c3ccccc3)N(C)C2(C)C1=N (stereo not given)
inactive: A498 > 100 µM | A549 > 100 µM | ACHN > 100 µM | CAKI-1 > 100 µM | DU-145 > 100 µM | K562 > 100 µM | MDA-MB-231 > 100 µM | MDA-N > 100 µM | NCI-H522 > 100 µM | OVCAR-3 > 100 µM | OVCAR-4 > 100 µM | OVCAR-8 > 100 µM | PC-3 > 100 µM | SF-295 > 100 µM | SN12C > 100 µM | SNB-19 > 100 µM | SW-620 > 100 µM | U-251 > 100 µM

COc1cc(OC)cc(-c2nc3cc(F)ccc3s2)c1
inactive: A498 19.1 µM | A549 > 100 µM | ACHN 14.5 µM | CAKI-1 40.2 µM | DU-145 26.1 µM | MDA-MB-231 13.6 µM | MDA-N > 100 µM | NCI-H522 19 µM | OVCAR-3 26.2 µM | OVCAR-4 > 100 µM | OVCAR-8 30.8 µM | PC-3 39.5 µM | SF-295 10.6 µM | SN12C 36.4 µM | SNB-19 16.9 µM | SW-620 > 100 µM | U-251 15.1 µM

COc1ccc(C(=O)Cn2c(C(=O)/C=C/c3ccco3)nc3ccccc32)cc1
inactive: A498 35.5 µM | A549 42.8 µM | ACHN 42.8 µM | DU-145 38.5 µM | K562 22.2 µM | MDA-MB-231 28.7 µM | MDA-N 26 µM | MOLT-4 15.8 µM | OVCAR-3 24.9 µM | OVCAR-4 37.1 µM | PC-3 36.3 µM | SN12C 39.1 µM | SNB-19 39.2 µM | SW-620 31.4 µM | U-251 32.7 µM

CNC(=S)/N=c1/sc(NC)nc2sc3c(c12)CCCC3
inactive: A498 > 100 µM | ACHN > 100 µM | CAKI-1 > 100 µM | DU-145 > 100 µM | K562 > 100 µM | MDA-MB-231 51.9 µM | MDA-N > 100 µM | MOLT-4 > 100 µM | NCI-H522 36.4 µM | OVCAR-3 > 100 µM | OVCAR-4 > 100 µM | PC-3 > 100 µM | SF-295 30.8 µM | SN12C > 100 µM | SNB-19 35.9 µM | SW-620 > 100 µM | U-251 35.4 µM

CC(=S)NC=C(C(N)=O)C(N)=O
inactive: A498 > 100 µM | A549 > 100 µM | ACHN > 100 µM | CAKI-1 > 100 µM | DU-145 > 100 µM | K562 > 100 µM | MDA-MB-231 > 100 µM | MDA-N > 100 µM | MOLT-4 > 100 µM | NCI-H522 > 100 µM | OVCAR-3 > 100 µM | OVCAR-8 > 100 µM | PC-3 > 100 µM | SF-295 > 100 µM | SN12C > 100 µM | SW-620 > 100 µM | U-251 > 100 µM

C/C=C1\C(=O)O[C@H]2C/C(C)=C/CC/C(C)=C/CC[C@@]3(C)O[C@@H]3C[C@@H]12
inactive: A498 > 100 µM | A549 > 100 µM | ACHN > 100 µM | CAKI-1 > 100 µM | DU-145 > 100 µM | K562 > 100 µM | MDA-MB-231 > 100 µM | MDA-N > 100 µM | MOLT-4 95.1 µM | OVCAR-3 > 100 µM | OVCAR-8 > 100 µM | PC-3 > 100 µM | SF-295 > 100 µM | SN12C > 100 µM | SNB-19 36.8 µM | SW-620 > 100 µM | U-251 85.5 µM

COC(=O)/N=[N+](\[O-])C(c1ccccc1)c1ccccc1
inactive: A498 > 100 µM | A549 33.2 µM | CAKI-1 76.6 µM | DU-145 42.6 µM | K562 47.8 µM | MDA-MB-231 > 100 µM | MDA-N 59.2 µM | MOLT-4 > 100 µM | NCI-H522 > 100 µM | OVCAR-3 98.9 µM | OVCAR-4 34.8 µM | OVCAR-8 > 100 µM | PC-3 60.4 µM | SN12C > 100 µM | SNB-19 > 100 µM | SW-620 > 100 µM | U-251 > 100 µM

CC(C)(C)C(=O)OCC1CCC[N+]2(C)CCCCC12 (stereo not given)
inactive: A498 > 100 µM | A549 > 100 µM | ACHN > 100 µM | CAKI-1 > 100 µM | DU-145 > 100 µM | K562 > 100 µM | MDA-MB-231 > 100 µM | MDA-N > 100 µM | MOLT-4 > 100 µM | OVCAR-3 > 100 µM | OVCAR-4 > 100 µM | OVCAR-8 > 100 µM | PC-3 > 100 µM | SF-295 > 100 µM | SN12C > 100 µM | SNB-19 > 100 µM | SW-620 > 100 µM | U-251 > 100 µM

CC(=O)NC(CCC(=O)C=[N+]=[N-])C(=O)O (stereo not given)
inactive: A498 > 100 µM | A549 > 100 µM | ACHN > 100 µM | DU-145 > 100 µM | K562 > 100 µM | MDA-MB-231 > 100 µM | MDA-N > 100 µM | MOLT-4 > 100 µM | NCI-H522 > 100 µM | OVCAR-3 > 100 µM | OVCAR-4 > 100 µM | OVCAR-8 > 100 µM | PC-3 > 100 µM | SF-295 > 100 µM | SN12C > 100 µM | SNB-19 > 100 µM | SW-620 > 100 µM | U-251 > 100 µM

O=C1OS2(OCc3cccc4cccc2c34)c2ccccc21 (stereo not given)
inactive: A498 > 100 µM | A549 > 100 µM | ACHN > 100 µM | CAKI-1 > 100 µM | DU-145 > 100 µM | K562 > 100 µM | MDA-MB-231 > 100 µM | MDA-N > 100 µM | MOLT-4 > 100 µM | NCI-H522 50.8 µM | OVCAR-3 > 100 µM | OVCAR-4 > 100 µM | PC-3 > 100 µM | SF-295 > 100 µM | SN12C > 100 µM | SNB-19 > 100 µM | SW-620 > 100 µM | U-251 > 100 µM
